# Target: T1, human 5-HT1A (Homo sapiens, UniProt P08908)
# T1 construct: expressed in transfected cells
# T1 sequence (P08908 1-422): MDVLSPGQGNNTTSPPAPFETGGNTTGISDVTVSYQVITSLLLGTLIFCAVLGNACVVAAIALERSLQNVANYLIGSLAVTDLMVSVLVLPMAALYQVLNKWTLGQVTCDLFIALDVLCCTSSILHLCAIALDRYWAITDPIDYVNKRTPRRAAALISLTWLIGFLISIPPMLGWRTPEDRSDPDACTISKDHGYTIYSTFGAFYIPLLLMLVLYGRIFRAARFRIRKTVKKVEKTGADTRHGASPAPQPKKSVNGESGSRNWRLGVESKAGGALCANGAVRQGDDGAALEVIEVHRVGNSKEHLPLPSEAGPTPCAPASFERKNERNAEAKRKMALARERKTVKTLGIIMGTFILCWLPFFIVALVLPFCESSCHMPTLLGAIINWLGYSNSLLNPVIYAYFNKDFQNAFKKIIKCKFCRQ
# Assay: 5-HT1AR binding ([3H]-8-OH-DPAT), HEK293
# Settings: read-out: serotonin 5-HT1A % inhibition at 1 microM
# Description: 3. Selectivity screen of PZ-1922
# For membrane preparation,
# EDTA and 1 mM dithiothreitol.
# The composition of the assay buffers was
# reader (PerkinElmer, USA).
# The results were expressed as the %
# www.eurofinsdiscovery.com.
smiles,measurement,value
"Cl.Clc1cccc(Cn2ccc3c(N4CCNCC4)nc4ccccc4c32)c1 [PZ-1922, 1-(3-Chlorobenzyl)-4-(piperazin-1-yl)-1H-pyrrolo[3,2-c]quinoline Hydrochloride]",inhibition at 1 µM,3%

# From PMC10641814 (Journal of Medicinal Chemistry, 2023)
